Laboratory results reported in ChEMBL document CHEMBL1144945, “Development of progesterone receptor antagonists from 1,2-dihydrochromeno[3,4-f]quinoline agonist pharmacophore” (Bioorg Med Chem Lett, 2003).
One block for each molecule: values may come before it. Calls of active or inactive are those of the source.

Columns and labels:
[1] = target: T1, Progesterone receptor (Homo sapiens, UniProt P06401); experiment: Binding towards human progesterone receptor
T1 sequence (P06401 whole entry): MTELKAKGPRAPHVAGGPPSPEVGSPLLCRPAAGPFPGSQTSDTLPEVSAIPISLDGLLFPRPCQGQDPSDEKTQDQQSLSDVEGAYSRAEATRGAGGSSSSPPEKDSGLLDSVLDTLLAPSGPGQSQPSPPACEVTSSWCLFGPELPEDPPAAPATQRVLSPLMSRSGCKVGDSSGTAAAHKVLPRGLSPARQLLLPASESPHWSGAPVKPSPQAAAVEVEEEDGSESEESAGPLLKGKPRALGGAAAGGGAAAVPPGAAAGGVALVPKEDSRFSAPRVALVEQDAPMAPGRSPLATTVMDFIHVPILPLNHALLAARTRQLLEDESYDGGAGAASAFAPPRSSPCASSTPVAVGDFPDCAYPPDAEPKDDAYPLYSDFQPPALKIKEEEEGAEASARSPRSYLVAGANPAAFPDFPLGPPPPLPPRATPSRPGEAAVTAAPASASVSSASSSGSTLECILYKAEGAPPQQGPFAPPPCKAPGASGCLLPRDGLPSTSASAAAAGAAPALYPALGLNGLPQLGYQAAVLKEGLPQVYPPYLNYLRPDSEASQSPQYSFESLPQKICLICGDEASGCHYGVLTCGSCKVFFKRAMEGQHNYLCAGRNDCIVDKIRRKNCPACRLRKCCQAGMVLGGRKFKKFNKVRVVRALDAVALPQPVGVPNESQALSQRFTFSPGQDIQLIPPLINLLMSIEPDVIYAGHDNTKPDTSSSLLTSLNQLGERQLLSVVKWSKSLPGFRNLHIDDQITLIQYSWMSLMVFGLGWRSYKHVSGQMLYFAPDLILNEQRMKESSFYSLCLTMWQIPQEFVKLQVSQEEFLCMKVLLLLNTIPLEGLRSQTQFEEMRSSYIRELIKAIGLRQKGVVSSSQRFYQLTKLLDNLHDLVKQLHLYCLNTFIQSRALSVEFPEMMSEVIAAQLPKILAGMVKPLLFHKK

[2] = target: T2, Mineralocorticoid receptor (Homo sapiens, UniProt P08235); experiment: Inhibition of antagonist activity towards mineralocorticoid receptor (hMR); Not active; type: functional
T2 sequence (P08235 whole entry): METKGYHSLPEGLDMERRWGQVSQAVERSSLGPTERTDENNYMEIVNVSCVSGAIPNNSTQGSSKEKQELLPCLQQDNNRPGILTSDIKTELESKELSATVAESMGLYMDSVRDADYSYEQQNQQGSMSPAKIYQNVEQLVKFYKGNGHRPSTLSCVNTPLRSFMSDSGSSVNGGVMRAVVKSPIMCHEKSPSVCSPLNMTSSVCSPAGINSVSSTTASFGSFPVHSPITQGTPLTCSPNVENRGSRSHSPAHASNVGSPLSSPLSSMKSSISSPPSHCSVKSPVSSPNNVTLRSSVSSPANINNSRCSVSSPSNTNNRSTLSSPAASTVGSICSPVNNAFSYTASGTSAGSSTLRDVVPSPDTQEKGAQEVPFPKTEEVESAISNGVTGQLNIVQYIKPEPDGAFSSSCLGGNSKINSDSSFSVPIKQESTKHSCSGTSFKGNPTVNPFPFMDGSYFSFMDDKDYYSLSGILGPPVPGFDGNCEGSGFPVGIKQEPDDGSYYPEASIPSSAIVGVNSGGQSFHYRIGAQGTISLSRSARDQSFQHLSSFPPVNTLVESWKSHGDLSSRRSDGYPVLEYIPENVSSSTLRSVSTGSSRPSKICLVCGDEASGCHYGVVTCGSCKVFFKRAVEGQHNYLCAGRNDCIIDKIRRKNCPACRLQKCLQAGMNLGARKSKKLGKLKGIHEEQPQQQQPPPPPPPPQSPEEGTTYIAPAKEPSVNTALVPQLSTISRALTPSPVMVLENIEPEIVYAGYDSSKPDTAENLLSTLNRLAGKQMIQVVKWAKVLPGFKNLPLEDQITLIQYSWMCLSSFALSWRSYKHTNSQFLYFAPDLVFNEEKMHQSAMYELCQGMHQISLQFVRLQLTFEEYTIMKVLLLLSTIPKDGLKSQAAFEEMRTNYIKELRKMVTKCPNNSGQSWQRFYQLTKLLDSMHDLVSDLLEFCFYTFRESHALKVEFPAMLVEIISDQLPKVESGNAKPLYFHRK

[3] = target: T3, Mineralocorticoid receptor (Homo sapiens) (UniProt P08235); experiment: Antagonist efficacy for mineralocorticoid receptor (hMR); Not active; type: functional
T3 sequence (whole entry): T2 sequence (P08235 whole entry)

[4] = target: T1, Progesterone receptor
Description: Binding affinity at human progesterone receptor.

[5] = target: T1, Progesterone receptor; remark: listed apart in the source
Description: Inhibition of human progesterone receptor activation in T47D human breast cancer cell.

[6] = target: T1, Progesterone receptor; experiment: Effective concentration for human progesterone receptor in T47D human breast cancer cell; not active (<20% efficacy and/or >10 mM potency); conditions: cancer cell lines
[7] = target: T4, Progesterone receptor (Homo sapiens) (UniProt P06401); experiment: Agonist efficacy for human progesterone receptor in T47D human breast cancer cell; not active (<20% efficacy and/or >10 mM potency); type: functional, cell-based
T4 sequence (whole entry): T1 sequence (P06401 whole entry)

[8] = target: Estrogen receptor (Homo sapiens) (UniProt Q92731+P03372); experiment: Antagonist efficacy for Estrogen receptor; Not active; type: functional
[9] = target: T1, Progesterone receptor; remark: listed apart in the source
Description: Antagonistic activity at human progesterone receptor in CV-1 cells.

[10] = target: T5, Glucocorticoid receptor (Homo sapiens, UniProt P04150); experiment: Inhibition of antagonist activity towards glucocorticoid receptor; type: functional
T5 sequence (P04150 whole entry): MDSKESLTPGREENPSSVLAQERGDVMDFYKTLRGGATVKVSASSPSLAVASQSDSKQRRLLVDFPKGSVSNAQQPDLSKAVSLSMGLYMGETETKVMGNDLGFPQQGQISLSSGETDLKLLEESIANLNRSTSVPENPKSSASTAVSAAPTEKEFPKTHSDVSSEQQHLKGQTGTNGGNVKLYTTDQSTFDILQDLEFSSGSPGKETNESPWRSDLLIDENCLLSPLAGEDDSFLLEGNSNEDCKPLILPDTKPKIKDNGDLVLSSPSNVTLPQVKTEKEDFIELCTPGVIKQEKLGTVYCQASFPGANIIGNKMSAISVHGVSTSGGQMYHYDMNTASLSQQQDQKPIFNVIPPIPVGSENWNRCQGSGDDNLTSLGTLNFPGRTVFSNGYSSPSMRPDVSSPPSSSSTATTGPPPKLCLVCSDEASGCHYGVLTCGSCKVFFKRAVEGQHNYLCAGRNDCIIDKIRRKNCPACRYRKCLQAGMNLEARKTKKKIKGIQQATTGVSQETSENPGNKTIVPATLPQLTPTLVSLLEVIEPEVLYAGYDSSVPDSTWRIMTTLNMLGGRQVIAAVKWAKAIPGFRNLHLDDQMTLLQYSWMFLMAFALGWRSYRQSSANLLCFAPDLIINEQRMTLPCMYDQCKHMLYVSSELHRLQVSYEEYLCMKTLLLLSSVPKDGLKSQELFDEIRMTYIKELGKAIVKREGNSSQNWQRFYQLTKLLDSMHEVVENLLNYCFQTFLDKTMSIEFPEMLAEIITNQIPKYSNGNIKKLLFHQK

SMILES: CC1=CC(C)(C)Nc2ccc3c(c21)COc1c(F)cc(F)cc1-3
Ki [1]: 13.5 nM
IC50 [2]: Not Active
Efficacy [3]: inactive

SMILES: CC1CC(C)(C)Nc2ccc3c(c21)COc1ccc([N+](=O)[O-])cc1-3 (configuration not stated)
Ki [4]: 144 nM
IC50 [5]: 104 nM
IC50 ([2]; read-out: IC50): 2870 nM (not active)
Efficacy [3]: 58%
EC50 [6]: Not Active
Efficacy [7]: inactive
Efficacy [8]: inactive
IC50 [10]: 1870 nM
EC50 [9]: 52 nM

SMILES: CC1=CC(C)(C)Nc2ccc3c(c21)COc1c(F)cc(Br)cc1-3
Ki [4]: 12.4 nM
IC50 [5]: 461 nM
IC50 [2]: Not Active
Efficacy [3]: inactive
EC50 [6]: Not Active
Efficacy [7]: inactive
Efficacy [8]: inactive
IC50 [10]: 2170 nM
EC50 [9]: 57 nM

Continued, values first:

Ki [4]: 45 nM
IC50 [5]: 217 nM
IC50 [2]: Not Active
Efficacy [3]: inactive
EC50 [6]: Not Active
Efficacy [7]: inactive
Efficacy [8]: inactive
EC50 [9]: 40 nM
SMILES: CC1CC(C)(C)Nc2ccc3c(c21)COc1c(F)cc(F)cc1-3 (configuration not stated)

Ki [1]: 5.6 nM
IC50 [2]: Not Active
Efficacy [3]: inactive
SMILES: CC1=CC(C)(C)Nc2ccc3c(c21)COc1c(F)cc(Cl)cc1-3
